Measurements reported in patent US11000033B2, “Ketone or oxime compound, and herbicide” (NISSAN CHEMICAL CORPORATION, priority 2014, dated 2021).

Assays:
Type in all cases: in vivo
Stellaria media = experiment: Test Example 4: herbicidal effect by soil treatment (symbol P); conditions: for Herbicidal effect grade, P: Stellaria media: application herbicide amount 320 g/ha
Excerpt: (§1) Herbicidal Effect Test by Soil Treatment
(§2) Sterilized diluvial soil was placed in a plastic box having a length of 21 cm, a width of 13 cm, and a depth of 7 cm. Each of the seeds of Digitaria ciliaris, Setaria viridis, Echinochloa crus-galli var. crus-galli, Avena fatua, Alopecurus myosuroides, Lolium multiflorum Lam., Apera spica-venti, Abutilon theophrasti, Amaranthus retroflexus, Chenopodium album, Stellaria media, Galium spurium, Veronica persica, corn, soybean, rice, wheat, beet, and rapeseed was sowed in a spot-like manner and was covered with the soil of a thickness of about 1.5 cm. Subsequently, the emulsion agent of the compound present invention prepared in accordance with Formulation Example 2 was diluted with water so as to be a predetermined herbicide amount and the diluted emulsion agent was uniformly applied to the surface of the soil with a small-size spray. The plastic box was placed in a greenhouse of 25° C. to 30° C. to grow plant. 3 weeks later from the herbicide application, the effect to each plant was investigated in accordance with the criteria of Test Example 1.

Apera spica-venti [1] = experiment: Test Example 4: herbicidal effect by soil treatment (symbol L)
Excerpt: as §1, §2

Setaria viridis = experiment: Test Example 4: herbicidal effect by soil treatment (symbol G)
Excerpt: as §1, §2

Scirpus juncoides = experiment: Test Example 1: herbicidal activity, application before weed generation in submerged conditions (symbol B); conditions: application herbicide amount 320 g/ha
Outline: (§3)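 Flooded alluvial soil (4 cm water) was mixed-sown with the three weed species, and 2.5-leaf rice seedlings were transplanted. On sowing day, a water-diluted emulsion at a predetermined rate was applied to the water surface. After 3 weeks in a 25–30 °C greenhouse, effect was scored 0–5.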

Digitaria ciliaris = experiment: Test Example 5: herbicidal effect by foliage application, plastic box (symbol F); conditions: 320 g/ha, 3 weeks after application
Outline: (§4)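 Effect is rated 3 weeks after a foliar spray of water-diluted emulsion concentrate at a predetermined herbicide amount. Plants had grown 14 days in a 25° C. to 30° C. greenhouse from seed in sterilized diluvial soil.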

Avena fatua = experiment: Test Example 5: herbicidal effect by foliage application, plastic box (symbol I); conditions: 320 g/ha, 3 weeks after application
Outline: as §4

Abutilon theophrasti = experiment: Test Example 4: herbicidal effect by soil treatment (symbol M)
Excerpt: as §1, §2

wheat = experiment: Test Example 5: effect on crop by foliage application, plastic box (symbol e); conditions: 320 g/ha, 3 weeks after application
Outline: (§5)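 Greenhouse culture at 25° C. to 30° C. followed spot-like sowing into sterilized diluvial soil, with seed covered by roughly 1.5 cm of soil.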

[2] = tested on: directly sowed rice plant; experiment: Test Example 3: effect on crop by foliage application, Wagner pot (symbol b); conditions: application herbicide amount 320 g/ha; for b (directly sowed rice plant) effect on crop grade: Table 24
Outline: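 Plants are raised from seed in flooded paddy conditions: water stands 0.1–0.5 cm over alluvial soil, and the pot is kept in a greenhouse at 25–30 °C. Species sown are barnyardgrass (E. crus-galli var. crus-galli), Leptochloa chinensis, Cyperus difformis and rice.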

rapeseed = experiment: Test Example 5: effect on crop by foliage application, plastic box (symbol g); conditions: 320 g/ha, 3 weeks after application
Outline: as §5

Lolium multiflorum Lam. = experiment: Test Example 5: herbicidal effect by foliage application, plastic box (symbol K); conditions: 320 g/ha, 3 weeks after application
Outline: as §4

[3] = tested on: Echinochloa oryzacola Vasing.; experiment: Test Example 1: herbicidal activity, application before weed generation in submerged conditions (symbol A); conditions: application herbicide amount 320 g/ha
Outline: as §3

Monochoria vaginalis = experiment: Test Example 1: herbicidal activity, application before weed generation in submerged conditions (symbol C); conditions: application herbicide amount 320 g/ha
Outline: as §3

Veronica persica = experiment: Test Example 4: herbicidal effect by soil treatment (symbol R); conditions: for Herbicidal effect grade, R: Veronica persica: application herbicide amount 320 g/ha
Excerpt: as §1, §2

transplanted rice plant = experiment: Test Example 1: effect on crop, application before weed generation in submerged conditions (symbol a); conditions: application herbicide amount 320 g/ha
Outline: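 Alluvial soil pots flooded to 4 cm water, sown with Echinochloa oryzacola, Scirpus juncoides and Monochoria vaginalis, then transplanted with 2.5 leaf stage rice seedlings; pre-emergence application. Greenhouse 25° C. to 30° C.; scored 0–5 by herbicidal ratio 3 weeks after application.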

Apera spica-venti [4] = experiment: Test Example 5: herbicidal effect by foliage application, plastic box (symbol L); conditions: 320 g/ha, 3 weeks after application
Outline: as §4

Galium spurium = experiment: Test Example 5: herbicidal effect by foliage application, plastic box (symbol Q); conditions: 320 g/ha, 3 weeks after application
Outline: as §4

[5] = application herbicide amount 320 g/ha

COC(=O)C(C(=O)C1CC1)C1CC(O)=C(c2c(C)cc(Br)cc2C)C1=O (mixture of isomers) [10-002]
Herbicidal effect grade, P: Stellaria media (Stellaria media): 0 (Herbicidal ratio of 5% or lower (almost no effect))
Herbicidal effect grade, L: Apera spica-venti (Apera spica-venti [1]; [5]): 3 (Herbicidal ratio of 40% or higher and lower than 70%)
Herbicidal effect grade, G: Setaria viridis (Setaria viridis; [5]): 4 (Herbicidal ratio of 70% or higher and lower than 90%)
B (Scirpus juncoides) herbicidal effect grade (Scirpus juncoides): 0 (Herbicidal ratio of 5% or lower (almost no effect))
F: Digitaria ciliaris, herbicidal effect grade (Digitaria ciliaris): 5 (Herbicidal ratio of 90% or more (almost completely withered))
I: Avena fatua, herbicidal effect grade (Avena fatua): 5 (Herbicidal ratio of 90% or more (almost completely withered))
Herbicidal effect grade, M: Abutilon theophrasti (Abutilon theophrasti; [5]): 0 (Herbicidal ratio of 5% or lower (almost no effect))
e: wheat, effect on crop grade (wheat): 0 (Herbicidal ratio of 5% or lower (almost no effect))
b (directly sowed rice plant) effect on crop grade [2]: 5 (Herbicidal ratio of 90% or more (almost completely withered))
g: rapeseed, effect on crop grade (rapeseed): 0 (Herbicidal ratio of 5% or lower (almost no effect))
K: Lolium multiflorum Lam., herbicidal effect grade (Lolium multiflorum Lam.): 5 (Herbicidal ratio of 90% or more (almost completely withered))
A (Echinochloa oryzacola Vasing.) herbicidal effect grade [3]: 1 (Herbicidal ratio of 5% or higher and lower than 20%)
C (Monochoria vaginalis) herbicidal effect grade (Monochoria vaginalis): 0 (Herbicidal ratio of 5% or lower (almost no effect))
Herbicidal effect grade, R: Veronica persica (Veronica persica): 0 (Herbicidal ratio of 5% or lower (almost no effect))
a (transplanted rice plant) effect on crop grade (transplanted rice plant): 1 (Herbicidal ratio of 5% or higher and lower than 20%)
L: Apera spica-venti, herbicidal effect grade (Apera spica-venti [4]): 4 (Herbicidal ratio of 70% or higher and lower than 90%)

Cc1cc(Br)cc(C)c1C1=C(O)CC(CC(=O)C2CC2)C1=O (racemic) [10-004]
Herbicidal effect grade, P: Stellaria media (Stellaria media): 0 (Herbicidal ratio of 5% or lower (almost no effect))
Herbicidal effect grade, L: Apera spica-venti (Apera spica-venti [1]; [5]): 5 (Herbicidal ratio of 90% or more (almost completely withered))
Herbicidal effect grade, G: Setaria viridis (Setaria viridis; [5]): 5 (Herbicidal ratio of 90% or more (almost completely withered))
B (Scirpus juncoides) herbicidal effect grade (Scirpus juncoides): 0 (Herbicidal ratio of 5% or lower (almost no effect))
F: Digitaria ciliaris, herbicidal effect grade (Digitaria ciliaris): 5 (Herbicidal ratio of 90% or more (almost completely withered))
I: Avena fatua, herbicidal effect grade (Avena fatua): 5 (Herbicidal ratio of 90% or more (almost completely withered))
Herbicidal effect grade, M: Abutilon theophrasti (Abutilon theophrasti; [5]): 0 (Herbicidal ratio of 5% or lower (almost no effect))
e: wheat, effect on crop grade (wheat): 4 (Herbicidal ratio of 70% or higher and lower than 90%)
b (directly sowed rice plant) effect on crop grade [2]: 5 (Herbicidal ratio of 90% or more (almost completely withered))
g: rapeseed, effect on crop grade (rapeseed): 4 (Herbicidal ratio of 70% or higher and lower than 90%)
K: Lolium multiflorum Lam., herbicidal effect grade (Lolium multiflorum Lam.): 5 (Herbicidal ratio of 90% or more (almost completely withered))
A (Echinochloa oryzacola Vasing.) herbicidal effect grade [3]: 5 (Herbicidal ratio of 90% or more (almost completely withered))
C (Monochoria vaginalis) herbicidal effect grade (Monochoria vaginalis): 0 (Herbicidal ratio of 5% or lower (almost no effect))
Herbicidal effect grade, R: Veronica persica (Veronica persica): 0 (Herbicidal ratio of 5% or lower (almost no effect))
a (transplanted rice plant) effect on crop grade (transplanted rice plant): 5 (Herbicidal ratio of 90% or more (almost completely withered))
L: Apera spica-venti, herbicidal effect grade (Apera spica-venti [4]): 5 (Herbicidal ratio of 90% or more (almost completely withered))

C=CCOC1=C(c2c(C)cc(C)cc2C)C(=O)C(CC(C)=NOC)C1 (stereo not drawn) [1-007]
L (Apera spica-venti) herbicidal effect grade (Apera spica-venti [1]; [5]): 3 (Herbicidal ratio of 40% or higher and lower than 70%)
G (Setaria viridis) herbicidal effect grade (Setaria viridis; [5]): 0 (Herbicidal ratio of 5% or lower (almost no effect))
Herbicidal effect grade, B: Scirpus juncoides (Scirpus juncoides): 0 (Herbicidal ratio of 5% or lower (almost no effect))
F: Digitaria ciliaris, herbicidal effect grade (Digitaria ciliaris): 0 (Herbicidal ratio of 5% or lower (almost no effect))
I: Avena fatua, herbicidal effect grade (Avena fatua): 3 (Herbicidal ratio of 40% or higher and lower than 70%)
M (Abutilon theophrasti) herbicidal effect grade (Abutilon theophrasti; [5]): 0 (Herbicidal ratio of 5% or lower (almost no effect))
e: wheat, effect on crop grade (wheat): 0 (Herbicidal ratio of 5% or lower (almost no effect))
effect on crop b (directly sowed rice plant), grade 0-5 [2]: 0 (Herbicidal ratio of 5% or lower (almost no effect))
Q: Galium spurium, herbicidal effect grade (Galium spurium): 0 (Herbicidal ratio of 5% or lower (almost no effect))
g: rapeseed, effect on crop grade (rapeseed): 0 (Herbicidal ratio of 5% or lower (almost no effect))
K: Lolium multiflorum Lam., herbicidal effect grade (Lolium multiflorum Lam.): 5 (Herbicidal ratio of 90% or more (almost completely withered))
Herbicidal effect grade, A: Echinochloa oryzacola Vasing. [3]: 0 (Herbicidal ratio of 5% or lower (almost no effect))
Herbicidal effect grade, C: Monochoria vaginalis (Monochoria vaginalis): 0 (Herbicidal ratio of 5% or lower (almost no effect))
Effect grade on crop, a: transplanted rice plant (transplanted rice plant): 0 (Herbicidal ratio of 5% or lower (almost no effect))
L: Apera spica-venti, herbicidal effect grade (Apera spica-venti [4]): 1 (Herbicidal ratio of 5% or higher and lower than 20%)

CON=C(C)CC1CC(OC(=O)C#C[Si](C)(C)C)=C(c2c(C)cc(C)cc2C)C1=O (stereo not drawn) [1-096]
P: Stellaria media, herbicidal effect grade (Stellaria media; 320 g/ha): 0 (Herbicidal ratio of 5% or lower (almost no effect))
L: Apera spica-venti, herbicidal effect grade (Apera spica-venti [1]; 320 g/ha): 5 (Herbicidal ratio of 90% or more (almost completely withered))
G: Setaria viridis, herbicidal effect grade (Setaria viridis; 320 g/ha): 5 (Herbicidal ratio of 90% or more (almost completely withered))
Herbicidal effect grade, B: Scirpus juncoides (Scirpus juncoides): 5 (Herbicidal ratio of 90% or more (almost completely withered))
F: Digitaria ciliaris, herbicidal effect (criteria 0-5) (Digitaria ciliaris): 5 (Herbicidal ratio of 90% or more (almost completely withered))
I: Avena fatua, herbicidal effect (criteria 0-5) (Avena fatua): 5 (Herbicidal ratio of 90% or more (almost completely withered))
M: Abutilon theophrasti, herbicidal effect grade (Abutilon theophrasti; 320 g/ha): 4 (Herbicidal ratio of 70% or higher and lower than 90%)
e: wheat, effect on crop (criteria 0-5) (wheat): 5 (Herbicidal ratio of 90% or more (almost completely withered))
effect on crop b (directly sowed rice plant), grade 0-5 [2]: 5 (Herbicidal ratio of 90% or more (almost completely withered))
g: rapeseed, effect on crop (criteria 0-5) (rapeseed): 4 (Herbicidal ratio of 70% or higher and lower than 90%)
K: Lolium multiflorum Lam., herbicidal effect (criteria 0-5) (Lolium multiflorum Lam.): 5 (Herbicidal ratio of 90% or more (almost completely withered))
Herbicidal effect grade, A: Echinochloa oryzacola Vasing. [3]: 5 (Herbicidal ratio of 90% or more (almost completely withered))
Herbicidal effect grade, C: Monochoria vaginalis (Monochoria vaginalis): 0 (Herbicidal ratio of 5% or lower (almost no effect))
R: Veronica persica, herbicidal effect grade (Veronica persica; 320 g/ha): 0 (Herbicidal ratio of 5% or lower (almost no effect))
Effect grade on crop, a: transplanted rice plant (transplanted rice plant): 5 (Herbicidal ratio of 90% or more (almost completely withered))
L: Apera spica-venti, herbicidal effect (criteria 0-5) (Apera spica-venti [4]): 5 (Herbicidal ratio of 90% or more (almost completely withered))

COCCON=C(CC1CC(O)=C(c2c(C)cc(-n3cc(Cl)cn3)cc2C)C1=O)C1CC1 (stereo not drawn) [9-020]
Herbicidal effect grade, L: Apera spica-venti (Apera spica-venti [1]; [5]): 4 (Herbicidal ratio of 70% or higher and lower than 90%)
Herbicidal effect grade, G: Setaria viridis (Setaria viridis; [5]): 5 (Herbicidal ratio of 90% or more (almost completely withered))
B (Scirpus juncoides) herbicidal effect grade (Scirpus juncoides): 4 (Herbicidal ratio of 70% or higher and lower than 90%)
F: Digitaria ciliaris, herbicidal effect grade (Digitaria ciliaris): 5 (Herbicidal ratio of 90% or more (almost completely withered))
I: Avena fatua, herbicidal effect grade (Avena fatua): 5 (Herbicidal ratio of 90% or more (almost completely withered))
Herbicidal effect grade, M: Abutilon theophrasti (Abutilon theophrasti; [5]): 3 (Herbicidal ratio of 40% or higher and lower than 70%)
e: wheat, effect on crop grade (wheat): 2 (Herbicidal ratio of 20% or higher and lower than 40%)
b (directly sowed rice plant) effect on crop grade [2]: 5 (Herbicidal ratio of 90% or more (almost completely withered))
g: rapeseed, effect on crop grade (rapeseed): 4 (Herbicidal ratio of 70% or higher and lower than 90%)
K: Lolium multiflorum Lam., herbicidal effect grade (Lolium multiflorum Lam.): 5 (Herbicidal ratio of 90% or more (almost completely withered))
A (Echinochloa oryzacola Vasing.) herbicidal effect grade [3]: 5 (Herbicidal ratio of 90% or more (almost completely withered))
C (Monochoria vaginalis) herbicidal effect grade (Monochoria vaginalis): 1 (Herbicidal ratio of 5% or higher and lower than 20%)
Herbicidal effect grade, R: Veronica persica (Veronica persica): 0 (Herbicidal ratio of 5% or lower (almost no effect))
a (transplanted rice plant) effect on crop grade (transplanted rice plant): 5 (Herbicidal ratio of 90% or more (almost completely withered))
L: Apera spica-venti, herbicidal effect grade (Apera spica-venti [4]): 4 (Herbicidal ratio of 70% or higher and lower than 90%)
